In patent publication US11130769B2 (Prelude Therapeutics Incorporated, priority 2018, dated 2021) one finds IC50 and Ki data, which are given here for 17 molecules.

Where two headings read alike, the source gives them in different places.

One experiment relates to H929 cells. The experiment in a line: Cell viability assay (H929 10 FBS). Type of experiment: cell-based. To be noted: read-out: H929_10FBS IC50. In a few lines: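 H929 cells, 4000/well, in RPMI 1640 with 10% FBS, sodium pyruvate, HEPES and glucose were exposed to compound 24 h at 37 °C. Viability read as luminescence after 30-60 min at RT with CellTiter-Glo or ATPlite 1 Step.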

A further experiment addresses MCL-1 (Homo sapiens (Human), UniProt Q07820). Nature of the experiment: Cell free Mcl-1:Bim affinity assay (fluorescence polarization competition). Type of experiment: binding. The conditions noted are these: 15 nM MCL-1, 5 nM FITC-Bim, 1 hour at room temperature, read-out: BIM_Ki. In a few lines: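 Compounds competed with FITC-labelled Bim peptide (5 nM) for MCL-1 (15 nM) in HEPES/NaCl buffer with 1% DMSO, 1 h at room temperature. Fluorescence polarization (535 nm emission) gave % inhibition versus DMSO and positive controls; IC50 from 10-point curves, converted to Ki by the Nikolovska-Coleska equation.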
(In general: Polarisation of emitted light reports the rotation of a fluorescent probe.)

Setting [1] is: Homo sapiens, NCI-H929, 24 hours.

Chain of MCL-1 (Q07820 whole entry): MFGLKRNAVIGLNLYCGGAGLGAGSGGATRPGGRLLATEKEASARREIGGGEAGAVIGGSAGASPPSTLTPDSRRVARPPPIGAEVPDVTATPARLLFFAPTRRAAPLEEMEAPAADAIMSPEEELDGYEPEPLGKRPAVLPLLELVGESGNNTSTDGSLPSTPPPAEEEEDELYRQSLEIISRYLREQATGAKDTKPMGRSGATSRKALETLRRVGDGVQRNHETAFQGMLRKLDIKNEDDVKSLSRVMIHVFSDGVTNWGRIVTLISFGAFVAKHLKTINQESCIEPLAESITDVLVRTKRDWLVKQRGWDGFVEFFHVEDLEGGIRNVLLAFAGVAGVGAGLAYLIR

In the case of `COC(=O)N(C)[C@H]1/C=C/COC(C)(C)C(=O)NS(=O)(=O)c2ccc3c(c2)N(C[C@@H]2CC[C@H]21)C[C@@]1(CCCc2cc(Cl)ccc21)CO3` [Example 254, Methyl N-methyl-N-[(3R,6R,7S,8E,22S)-6′-chloro-12,12-dimethyl-13,15,15-trioxo-spiro[11,20-dioxa-15-thia-1,14-diazatetracyclo[14.7.2.03,6.019,24]pentacosa-8,16(25),17,19(24)-tetraene-22,1′-tetralin]-7-yl]carbamate], in the experiment with H929 cells (setting [1]), the half-inhibitory concentration (IC50) was over 1 µM. The Ki at MCL-1 (class symbols) fell in the range of 0.001 to 0.1 µM.
On to `CC1(C)OC/C=C/[C@H](O)[C@@H]2CC[C@H]2CN2C[C@@]3(CCCc4cc(Cl)ccc43)COc3ccc(cc32)S(=O)(=O)NC1=O` [Example 32, (3R,6R,7S,8E,22S)-6′-Chloro-7-hydroxy-12,12-dimethyl-15,15-dioxo-spiro[11,20-dioxa-15-thia-1,14-diazatetracyclo[14.7.2.03,6.019,24]pentacosa-8,16,18,24-tetraene-22,1′-tetralin]-13-one], for which, in the experiment on H929 cells (setting [1]), the IC50 was under 0.5 µM. For the same molecule, the Ki at MCL-1 (class symbols) was under 0.001 µM.
For the molecule `COC1CN(C(=O)CO[C@H]2/C=C/COC(C)(C)C(=O)NS(=O)(=O)c3ccc4c(c3)N(C[C@@H]3CC[C@H]32)C[C@@]2(CCCc3cc(Cl)ccc32)CO4)C1` [Example 280, (3R,6R,7S,8E,22S)-6′-Chloro-7-[2-(3-methoxyazetidin-1-yl)-2-oxo-ethoxy]-12,12-dimethyl-15,15-dioxo-spiro[11,20-dioxa-15-thia-1,14-diazatetracyclo[14.7.2.03,6.019,24]pentacosa-8,16,18,24-tetraene-22,1′-tetralin]-13-one], the IC50 in the experiment on H929 cells (setting [1]) was under 0.5 µM. In addition, on MCL-1 (class symbols), the Ki is under 0.001 µM.
With `CO[C@@H]1/C=C/CC[C@@H](CO)C(=O)NS(=O)(=O)c2ccc3c(c2)N(C[C@@H]2CC[C@H]21)C[C@@]1(CCCc2cc(Cl)ccc21)CO3` [Example 95, (3R,6R,7R,8E,12S,22S)-6′-Chloro-12-(hydroxymethyl)-7-methoxy-15,15-dioxo-spiro[20-oxa-15-thia-1,14-diazatetracyclo[14.7.2.03,6.019,24]pentacosa-8,16,18,24-tetraene-22,1′-tetralin]-13-one], the IC50 in the experiment on H929 cells (setting [1]) was over 1 µM. Further, the Ki at MCL-1 (class symbols) was 0.001 to 0.1 µM.
Regarding `CC1(C)OC/C=C/[C@H](OC(=O)NCCc2cccnc2)[C@@H]2CC[C@H]2CN2C[C@@]3(CCCc4cc(Cl)ccc43)COc3ccc(cc32)S(=O)(=O)NC1=O` [Example 178, [(3R,6R,7S,8E,22S)-6′-Chloro-12,12-dimethyl-13,15,15-trioxo-spiro[11,20-dioxa-15λ^6-thia-1,14-diazatetracyclo[14.7.2.0^3,6.0^19,24]pentacosa-8,16,18,24-tetraene-22,1′-tetralin]-7-yl] N-[2-(3-pyridyl)ethyl]carbamate], the IC50 in the experiment on H929 cells (setting [1]) is under 0.5 µM. The Ki at MCL-1 (class symbols) was under 0.001 µM.
Consider `CN(C(=O)O[C@H]1/C=C/CN(C)C2(CCC2)C(=O)NS(=O)(=O)c2ccc3c(c2)N(C[C@@H]2CC[C@H]21)C[C@@]1(CCCc2cc(Cl)ccc21)CO3)[C@@H]1CCOC1` [Example 242, [(3R,6R,7S,8E,22S)-6′-Chloro-11-methyl-12,12-(1,3-propylene)-13,15,15-trioxo-spiro[20-oxa-15-thia-1,11,14-triazatetracyclo[14.7.2.03,6.019,24]pentacosa-8,16,18,24-tetraene-22,1′-tetralin]-7-yl] N-methyl-N-[(3R)-tetrahydrofuran-3-yl]carbamate], for which, in the experiment with H929 cells (setting [1]), the IC50 is under 0.5 µM. Also, the Ki on MCL-1 (class symbols) was under 0.001 µM.
For the molecule `CO[C@@H]1/C=C\CCC2(CC2)C(=O)NS(=O)(=O)c2ccc3c(c2)N(C[C@@H]2CC[C@H]21)C[C@@]1(CCCc2cc(Cl)ccc21)CO3` [Example 70, (3R,6R,7R,8Z,22S)-6′-chloro-7-methoxy-12,12-ethylene-15,15-dioxo-spiro[20-oxa-15-thia-1,14-diazatetracyclo[14.7.2.03,6.019,24]pentacosa[8,16(25),17,19(24)]tetraene-22,1′-tetralin]-13-one], the IC50 with H929 cells (24 hours) is over 1 µM. Also, the Ki at MCL-1 (class symbols) is 0.001 to 0.1 µM.
Regarding `C[C@H]1NC/C=C/[C@H](OC(=O)N(C)C)[C@@H]2CC[C@H]2CN2C[C@@]3(CCCc4cc(Cl)ccc43)COc3ccc(cc32)S(=O)(=O)NC1=O` [Example 146, [(3R,6R,7S,8E,12R,22S)-6′-Chloro-12-methyl-13,15,15-trioxo-spiro[20-oxa-15-thia-1,11,14-triazatetracyclo[14.7.2.03,6.019,24]pentacosa-8,16,18,24-tetraene-22,1′-tetralin]-7-yl] N,N-dimethylcarbamate], the IC50 with H929 cells (setting [1]) was under 0.5 µM. The Ki at MCL-1 (class symbols) is 0.001 to 0.1 µM.
In the same order, the values of `CCN1C/C=C/[C@H](OC(=O)N2CC(N(C)C)C2)[C@@H]2CC[C@H]2CN2C[C@@]3(CCCc4cc(Cl)ccc43)COc3ccc(cc32)S(=O)(=O)NC(=O)C1(C)C` [Example 224, [(3R,6R,7S,8E,22S)-6′-Chloro-11-ethyl-12,12-dimethyl-13,15,15-trioxo-spiro[20-oxa-15-thia-1,11,14-triazatetracyclo[14.7.2.03,6.019,24]pentacosa-8,16,18,24-tetraene-22,1′-tetralin]-7-yl] 3-(dimethylamino)azetidine-1-carboxylate] are under 0.5 µM and under 0.001 µM.
`CON(C)CCO[C@H]1/C=C/COC(C)(C)C(=O)NS(=O)(=O)c2ccc3c(c2)N(C[C@@H]2CC[C@H]21)C[C@@]1(CCCc2cc(Cl)ccc21)CO3` [Example 267, (3R,6R,7S,8E,22S)-6′-Chloro-7-[2-[methoxy(methyl)amino]ethoxy]-12,12-dimethyl-15,15-dioxo-spiro[11,20-dioxa-15-thia-1,14-diazatetracyclo[14.7.2.03,6.019,24]pentacosa-8,16,18,24-tetraene-22,1′-tetralin]-13-one]: the IC50 with H929 cells (setting [1]) is under 1 µM. Also, at MCL-1 (class symbols), the Ki was in the range of 0.001 to 0.1 µM.
Consider `CN(C(=O)O[C@H]1/C=C/COC2(CCC2)C(=O)NS(=O)(=O)c2ccc3c(c2)N(C[C@@H]2CC[C@H]21)C[C@@]1(CCCc2cc(Cl)ccc21)CO3)[C@@H]1CCOC1` [Example 234, [(3R,6R,7S,8E,22S)-6′-Chloro-12,12-(1,3-propylene)-13,15,15-trioxo-spiro[11,20-dioxa-15-thia-1,14-diazatetracyclo[14.7.2.03,6.019,24]pentacosa-8,16,18,24-tetraene-22,1′-tetralin]-7-yl] N-methyl-N-[(3R)-tetrahydrofuran-3-yl]carbamate], for which, in the experiment with H929 cells (setting [1]), the IC50 was under 0.5 µM. Further, the Ki on MCL-1 (class symbols) is under 0.001 µM.
In the same order, the values of `CC1(C)OC/C=C/[C@H](OCCN2C[C@@H](F)[C@@H](F)C2)[C@@H]2CC[C@H]2CN2C[C@@]3(CCCc4cc(Cl)ccc43)COc3ccc(cc32)S(=O)(=O)NC1=O` [Example 269, (3R,6R,7S,8E,22S)-6′-Chloro-7-[2-[(3R,4S)-3,4-difluoropyrrolidin-1-yl]ethoxy]-12,12-dimethyl-15,15-dioxo-spiro[11,20-dioxa-15-thia-1,14-diazatetracyclo[14.7.2.03,6.019,24]pentacosa-8,16,18,24-tetraene-22,1′-tetralin]-13-one] are under 0.5 µM and under 0.001 µM.
As to `CO[C@@H]1/C=C\CN[C@@H](C)C(=O)NS(=O)(=O)c2ccc3c(c2)N(C[C@@H]2CC[C@H]21)C[C@@]1(CCCc2cc(Cl)ccc21)CO3` [Example 118, (3R,6R,7R,8Z,12S,22S)-6′-Chloro-7-methoxy-12-methyl-15,15-dioxo-spiro[20-oxa-15-thia-1,11,14-triazatetracyclo[14.7.2.03,6.019,24]pentacosa-8,16(25),17,19(24)-tetraene-22,1′-tetralin]-13-one], the IC50 with H929 cells (setting [1]) is over 1 µM. In addition, on MCL-1 (class symbols), the Ki lay in the range of 0.001 to 0.1 µM.
In the same order, the values of `CO[C@H]1CCN(C(=O)O[C@H]2/C=C/COC(C)(C)C(=O)NS(=O)(=O)c3ccc4c(c3)N(C[C@@H]3CC[C@H]32)C[C@@]2(CCCc3cc(Cl)ccc32)CO4)C1` [Example 195, [(3R,6R,7S,8E,22S)-6′-Chloro-12,12-dimethyl-13,15,15-trioxo-spiro[11,20-dioxa-15-thia-1,14-diazatetracyclo[14.7.2.03,6.019,24]pentacosa-8,16,18,24-tetraene-22,1′-tetralin]-7-yl] (3S)-3-methoxypyrrolidine-1-carboxylate] are under 0.5 µM and under 0.001 µM.
For the molecule `CC(C)(C)OC(=O)N1CCC(C(=O)NS(=O)(=O)c2ccc3c(c2)N(CC2CCC2)CC2(CCCc4cc(Cl)ccc42)CO3)CC1` (stereo not shown) [Example 21, tert-Butyl 4-[[6′-chloro-5-(cyclobutylmethyl)spiro[2,4-dihydro-1,5-benzoxazepine-3,1′-tetralin]-7-yl]sulfonylcarbamoyl]piperidine-1-carboxylate], the IC50 in the experiment on H929 cells (setting [1]) is over 1 µM. For the same molecule, on MCL-1 (numeric values), the Ki is 0.0533 µM.
Take `CC(=O)NS(=O)(=O)c1ccc2c(c1)N(CC1C[C@@H](C)O[C@@H](C)C1)CC1(CCCc3cc(Cl)ccc31)CO2` (mixture of isomers) [Example 8, N-[6′-Chloro-5-[[rac-(2S,6R)-2,6-dimethyltetrahydropyran-4-yl]methyl]spiro[2,4-dihydro-1,5-benzoxazepine-3,1′-tetralin]-7-yl]sulfonylacetamide]: in the experiment with H929 cells (setting [1]), the IC50 is over 1 µM. Also, the Ki at MCL-1 (numeric values) was found to be 0.424 µM.
Turning to `CO[C@@H]1/C=C\CNC(=O)NS(=O)(=O)c2ccc3c(c2)N(C[C@@H]2CC[C@H]21)C[C@@]1(CCCc2cc(Cl)ccc21)CO3` [Example 130, (3R,6R,7R,8Z,21S)-6′-Chloro-7-methoxy-14,14-dioxo-spiro[19-oxa-14-thia-1,11,13-triazatetracyclo[13.7.2.03,6.018,23]tetracosa-8,15,17,23-tetraene-21,1′-tetralin]-12-one], the half-maximal inhibitory concentration (IC50) in the experiment on H929 cells (setting [1]) is over 1 µM. On MCL-1 (class symbols), the Ki was in the range of 0.001 to 0.1 µM.

A word on the IC50: it is the midpoint of a concentration-inhibition curve.
